How the values were obtained:
Type in all cases: ADME, organism-based
[1] = Oral bioavailability in Sprague-Dawley rat at 5 mg/kg; settings: in vivo
[2] = Cmax in Sprague-Dawley rat at 5 mg/kg, po; set-up: dose 5 mg/kg, route oral; settings: in vivo
[3] = AUC (0 to 24 hrs) in Sprague-Dawley rat at 5 mg/kg, po; set-up: time < 24 hr, dose 5 mg/kg, route oral; settings: plasma
[4] = Volume of distribution at steady state in Sprague-Dawley rat at 2 mg/kg, iv; set-up: dose 2 mg/kg, route intravenous; settings: in vivo, read-out: Vdss
[5] = tested on: Plasma; experiment: Fraction unbound in C57BL6 mouse plasma at 25 mg/kg, po after 8 hrs; set-up: dose 25 mg/kg, route oral; settings: in vivo
[6] = Cmax in C57BL6 mouse at 5 mg/kg, po; set-up: dose 5 mg/kg, route oral; settings: in vivo
[7] = tested on: Plasma; experiment: Fraction unbound in C57BL6 mouse plasma at 15 mg/kg, po; set-up: dose 15 mg/kg, route oral; settings: in vivo
[8] = tested on: Plasma; experiment: Fraction unbound in C57BL6 mouse plasma at 25 mg/kg, po; set-up: dose 25 mg/kg, route oral; settings: in vivo
[9] = tested on: Plasma; experiment: Fraction unbound in C57BL6 mouse plasma at 25 mg/kg, po after 4 hrs; set-up: dose 25 mg/kg, route oral; settings: in vivo
[10] = Oral bioavailability in C57BL6 mouse at 5 mg/kg; settings: in vivo
[11] = tested on: Plasma; experiment: Fraction unbound in C57BL6 mouse plasma at 50 mg/kg, po; set-up: dose 50 mg/kg, route oral; settings: in vivo
[12] = tested on: Plasma; experiment: Fraction unbound in C57BL6 mouse plasma at 35 mg/kg, po; set-up: dose 35 mg/kg, route oral; settings: in vivo
[13] = tested on: Plasma; experiment: Fraction unbound in C57BL6 mouse plasma at 25 mg/kg, po after 12 hrs; set-up: dose 25 mg/kg, route oral; settings: in vivo
[14] = tested on: Plasma; experiment: Fraction unbound in C57BL6 mouse plasma at 100 mg/kg, po; set-up: dose 100 mg/kg, route oral; settings: in vivo
[15] = tested on: Plasma; experiment: Fraction unbound in C57BL6 mouse plasma at 25 mg/kg, po after 1 hr; set-up: dose 25 mg/kg, route oral; settings: in vivo
[16] = Volume of distribution at steady state in C57BL6 mouse at 2 mg/kg, iv; set-up: dose 2 mg/kg, route intravenous; settings: in vivo, read-out: Vdss

| bioavailability [1] [%] | Cmax [2] [nM] | AUC(0-t) at 24 h [3] [ng·h/mL] | Vd [4] [L/kg] | Cp(f) [5] [nM] | Cmax [6] [nM] | Cp(f) [7] [nM] | Cp(f) [8] [nM] | Cp(f) [9] [nM] | bioavailability [10] [%] | Cp(f) [11] [nM] | Cp(f) [12] [nM] | Cp(f) [13] [nM] | Cp(f) [14] [nM] | Cp(f) [15] [nM] | Vd [16] [L/kg] | Compound |
| --- | --- | --- | --- | --- | --- | --- | --- | --- | --- | --- | --- | --- | --- | --- | --- | --- |
| 17 | 380 | 291 | 12.8 |  |  |  |  |  |  |  |  |  |  |  |  | CCOc1ccc(N2CCN(c3noc(CC)n3)[C@@H](C)C2)c(C)c1 |
| 34 | 1200 |  | 1.8 | 882 | 5800 | 95 | 708 | 1142 | 46 | 988 | 618 | 498 | 1482 | 1165 | 0.98 | CCOc1ccc(N2CCN(c3noc(C4(NC(C)=O)CCC4)n3)[C@@H](C)C2)c(C)c1 |

From ChEMBL document CHEMBL3108682, “Piperazine oxadiazole inhibitors of acetyl-CoA carboxylase” (J Med Chem, 2013)
